We go through 2 compounds from patent US20240327364A1, “THERAPEUTIC TARGETING OF GPR68 TO INDUCE FERROPTOSIS” (University Of Maryland, Baltimore, priority 2023, published 2024).

For series [1], the target named is T1, MST3 (Homo sapiens, UniProt Q9Y6E0).
T1 construct: purchased DiscoveRx
Kind of series: KinomeScan. The note with it: read-out: % Control. The class given is binding.

Series [2] has as its target CLK2 (Homo sapiens, UniProt P49760). Kind of series: KinomeScan. The class given is binding. The note with it: read-out: % Control.
Series [3] concerns the target T2, AURKB (Homo sapiens, UniProt Q96GD4).
T2 construct: purchased DiscoveRx (Fremont, CA)
Kind of series: KinomeScan. The class given is binding. As to conditions: read-out: % Control.

Series [4] concerns the target T3, ABL1(F317L)-nonphosphorylated (Homo sapiens, UniProt P00519, F317L).
T3 construct: purchased DiscoveRx
Kind of series: KinomeScan. The class given is binding. As to conditions: read-out: % Control.

Series [5] has as its target T4, AKT1 (Homo sapiens, UniProt P31749).
T4 construct: purchased DiscoveRx (Fremont, CA)
Kind of series: KinomeScan. The class given is binding. As to conditions: read-out: % Control.

Series [6] addresses T5, WEE1 (Homo sapiens, UniProt P30291).
T5 construct: purchased DiscoveRx
Kind of series: KinomeScan. The class given is binding. The note with it: read-out: % Control.

Series [7] addresses T6, YANK2 (Homo sapiens, UniProt Q9NY57).
T6 construct: purchased DiscoveRx
Kind of series: KinomeScan. The class given is binding. As to conditions: read-out: % Control.

Series [8] addresses T7, MYO3A (Homo sapiens, UniProt Q8NEV4).
T7 construct: purchased DiscoveRx
Kind of series: KinomeScan. The class given is binding. As to conditions: read-out: % Control.

Series [9] concerns the target T8, OPRM1 (Homo sapiens, UniProt P35372).
T8 construct: host or cells: Chem-1 cells expressing Gα15
Kind of series: GPCR Profiler. The class given is cell-based.

In series [10] the target is T9, IRAK4 (Homo sapiens, UniProt Q9NWZ3).
T9 construct: purchased DiscoveRx (Fremont, CA)
Put plainly: KinomeScan. The class given is binding. As to conditions: read-out: % Control.

The target of series [11] is T10, p38-alpha (Homo sapiens, UniProt Q16539).
T10 construct: purchased DiscoveRx
Kind of series: KinomeScan. As to conditions: read-out: % Control. The class given is binding.

For series [12], the target named is CHEK1 (Homo sapiens, UniProt O14757). Put plainly: KinomeScan. The class given is binding. As to conditions: read-out: % Control.
In series [13] the target is T11, CXCR5 (Homo sapiens, UniProt P32302).
T11 construct: host or cells: Chem-1 cells with Gα15
Put plainly: GPCR Profiler. The class given is cell-based.

Series [14] deals with T12, ALK (Homo sapiens, UniProt Q9UM73).
T12 construct: purchased DiscoveRx (Fremont, CA)
Kind of series: KinomeScan. The class given is binding. The note with it: read-out: % Control.

For series [15], the target named is T13, EP2 (Homo sapiens, UniProt P43116).
T13 construct: host or cells: Chem-1 cells expressing Gα15
Put plainly: GPCR Profiler. The class given is cell-based.

Series [16] deals with T14, RET(M918T) (Homo sapiens, UniProt P07949, M918T).
T14 construct: purchased DiscoveRx (Fremont, CA)
Put plainly: KinomeScan. The class given is binding. The note with it: read-out: % Control.

Series [17] has as its target T15, TNK1 (Homo sapiens, UniProt Q13470).
T15 construct: purchased DiscoveRx (Fremont, CA)
Kind of series: KinomeScan. As to conditions: read-out: % Control. The class given is binding.

In series [18] the target is T16, NMU2 (Homo sapiens, UniProt Q9GZQ4).
T16 construct: host or cells: Chem-1 cells expressing Gα15
Kind of series: GPCR Profiler. The class given is cell-based.

For series [19], the system named is HT-29. Kind of series: Cell Titer-Glo viability, Colorectal adenocarcinoma. The class given is cell-based. Details: key to Class: Very Sensitive (LC50<2 μM); Sensitive (LC50=2 to 10 μM); Mildly Sensitive (LC50>10 μM); Refractory (no killing at 10 μM). As for the experimental part:
(§1) OGM2 kills wide variety of cancer cell types. Cell sensitivity can be classified in to Very Sensitive (LC50<2 μM), Sensitive (LC50=2 to 10 μM), Mildly Sensitive (LC50>10 μM), and Refractory (no killing at 10 μM). The listed established cell were incubated with OGM2 at 2 μM or 10 μM for 72 hours under standard cell culture conditions, and relative cell number was assessed using Cell Titer-Glo Luminescent Cell Viability Assay (Promega™) following the manufacturer's instructions. Luminescence was determined using a Cytation 5 reader and Gen5 software package (BioTek™).
(§2) Cancer cells, which are very sensitive to killing by OGM2 (LCs <2 μM), with reported mRNA expression of GPR68 and the related proton sensing receptor GPR4. LC50's (concentrations causing 50% lethality) were determined using CellTiter-Glo (Promega™, G7570). Cells were plated in 12-well plates (CELLTREAT Scientific Products, 229112) in 1 ml of DMEM with high glucose, GlutaMAX, HEPES, or RPMI 1640 with Penicillin-Streptomycin (ThermoFisher™, 10564029, 11875119 and 15140122) and 10% FBS. Cells were incubated overnight at 37° C. in 5% CO2. Then 1 mL of fresh media was added with DMSO, OGM, or positive control (Erastin; APExBIO Technology, LLC, B1524) and cells incubated for 3 days. On the third day, all media was removed, cells were rinsed with 1×PBS, PBS was removed, and 200 μL of 1× Passive Lysis Buffer (Promega™, E1941) was added to each well. […]. Subsequently, 20 μL of lysate was added to 100 μL CellTiter-Glo™ reagent on a LUMITRAC 200 plate (Greiner™ bio-one, 82050-726). Plates were briefly spun down and read on a GloMax-Multi Detection System (Promega™).
(§3) The cells listed in the tables above were incubated with OGM2 at 2 μM or 10 μM for 72 hours under standard cell culture conditions, and relative cell number was assessed using Cell Titer-Glo Luminescent Cell Viability Assay (Promega™) following the manufacturer's instructions. Luminescence was determined using a Cytation 5 reader and Gen5 software package (BioTek™). RNA expression of GPR68 and GPR4 in the corresponding cancer cell lines are listed, according to the publicly available The Human Protein Atlas version 22.0 and Ensembl version 103.38 (see proteinatlas.org). The consensus normalized expression value (“nTPM”=normalize transcript per million) was calculated as the maximum nTPM value for each gene in the two data sources.
In general terms: Cellular ATP, detected with luciferase, serves as a proxy for viable cell number.

For series [20], the system named is U87 glioblastoma spheroids. Put plainly: Matrigel matrix invasion of spheroids. The class given is cell-based. From the text:
U87 glioblastoma spheroids were formed in low attachment round bottom plates for 3 days. Spheroids were then covered in Matrigel™, which was allowed to polymerize before treatment with acidified media with or without OGM2. Acidification increased the degree of matrix invasion which is attenuated by OGM2.

The test system of series [21] is MOLM-14. Kind of series: Cell Titer-Glo viability, Acute monocytic leukemia. The class given is cell-based. As for the experimental part:
as §1, §2, §3

Series [22] deals with THP-1. Put plainly: Cell Titer-Glo viability, Acute monocytic leukemia. The class given is cell-based. As to conditions: 72 hours. As for the experimental part:
as §1, §2, §3

T11 sequence (P32302 whole entry, species assumed): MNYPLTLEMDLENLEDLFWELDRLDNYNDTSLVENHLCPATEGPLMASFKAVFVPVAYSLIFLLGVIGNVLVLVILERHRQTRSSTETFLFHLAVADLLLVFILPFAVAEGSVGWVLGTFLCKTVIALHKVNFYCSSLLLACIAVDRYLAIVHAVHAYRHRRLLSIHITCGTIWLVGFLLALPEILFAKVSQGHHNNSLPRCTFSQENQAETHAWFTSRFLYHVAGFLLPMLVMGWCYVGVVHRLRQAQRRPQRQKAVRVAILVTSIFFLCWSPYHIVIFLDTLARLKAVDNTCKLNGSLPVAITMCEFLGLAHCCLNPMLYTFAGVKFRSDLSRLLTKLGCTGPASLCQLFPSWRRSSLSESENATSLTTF
T16 sequence (Q9GZQ4 whole entry, species assumed): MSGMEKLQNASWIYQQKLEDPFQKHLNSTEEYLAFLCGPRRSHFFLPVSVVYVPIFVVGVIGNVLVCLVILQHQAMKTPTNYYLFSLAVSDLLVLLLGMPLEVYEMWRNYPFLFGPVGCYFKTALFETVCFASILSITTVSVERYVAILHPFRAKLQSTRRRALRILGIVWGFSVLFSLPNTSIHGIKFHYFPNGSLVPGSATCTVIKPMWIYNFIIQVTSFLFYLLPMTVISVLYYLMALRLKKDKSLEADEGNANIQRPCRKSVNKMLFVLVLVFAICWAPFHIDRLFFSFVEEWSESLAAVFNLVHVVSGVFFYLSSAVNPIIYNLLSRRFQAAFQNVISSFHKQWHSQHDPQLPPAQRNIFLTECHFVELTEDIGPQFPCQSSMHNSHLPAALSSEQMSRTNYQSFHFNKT
T8 sequence (P35372 whole entry, species assumed): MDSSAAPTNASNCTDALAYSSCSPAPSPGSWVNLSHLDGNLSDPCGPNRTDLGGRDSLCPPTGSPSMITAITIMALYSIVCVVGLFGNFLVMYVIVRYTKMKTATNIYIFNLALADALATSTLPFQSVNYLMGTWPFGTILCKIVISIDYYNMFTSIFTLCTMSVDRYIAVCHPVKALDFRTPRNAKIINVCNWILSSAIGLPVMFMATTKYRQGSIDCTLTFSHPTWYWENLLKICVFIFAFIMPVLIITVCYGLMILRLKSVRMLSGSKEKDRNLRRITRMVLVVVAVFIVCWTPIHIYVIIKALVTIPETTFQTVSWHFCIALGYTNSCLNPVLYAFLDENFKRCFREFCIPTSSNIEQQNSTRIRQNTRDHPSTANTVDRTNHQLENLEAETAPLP
T13 sequence (P43116 whole entry): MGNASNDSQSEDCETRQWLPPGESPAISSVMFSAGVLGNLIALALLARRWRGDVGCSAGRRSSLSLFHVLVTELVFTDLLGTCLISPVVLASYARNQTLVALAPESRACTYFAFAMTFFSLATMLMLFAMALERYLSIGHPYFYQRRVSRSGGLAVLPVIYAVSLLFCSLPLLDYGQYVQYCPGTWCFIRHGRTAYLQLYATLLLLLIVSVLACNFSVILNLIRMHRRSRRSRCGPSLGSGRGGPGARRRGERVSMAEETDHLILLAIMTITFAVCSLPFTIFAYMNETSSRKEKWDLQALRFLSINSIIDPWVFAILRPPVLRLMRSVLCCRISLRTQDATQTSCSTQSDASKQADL
T2 sequence (Q96GD4 whole entry): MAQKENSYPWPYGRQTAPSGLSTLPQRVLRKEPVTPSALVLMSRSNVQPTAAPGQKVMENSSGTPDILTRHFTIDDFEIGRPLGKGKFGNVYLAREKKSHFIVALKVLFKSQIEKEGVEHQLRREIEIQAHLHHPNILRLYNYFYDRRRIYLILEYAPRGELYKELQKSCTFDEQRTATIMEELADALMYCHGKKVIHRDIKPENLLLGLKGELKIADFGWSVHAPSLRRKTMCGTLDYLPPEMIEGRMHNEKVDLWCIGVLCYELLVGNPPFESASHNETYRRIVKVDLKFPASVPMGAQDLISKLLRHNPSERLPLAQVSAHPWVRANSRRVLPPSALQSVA
T1 sequence (Q9Y6E0 whole entry): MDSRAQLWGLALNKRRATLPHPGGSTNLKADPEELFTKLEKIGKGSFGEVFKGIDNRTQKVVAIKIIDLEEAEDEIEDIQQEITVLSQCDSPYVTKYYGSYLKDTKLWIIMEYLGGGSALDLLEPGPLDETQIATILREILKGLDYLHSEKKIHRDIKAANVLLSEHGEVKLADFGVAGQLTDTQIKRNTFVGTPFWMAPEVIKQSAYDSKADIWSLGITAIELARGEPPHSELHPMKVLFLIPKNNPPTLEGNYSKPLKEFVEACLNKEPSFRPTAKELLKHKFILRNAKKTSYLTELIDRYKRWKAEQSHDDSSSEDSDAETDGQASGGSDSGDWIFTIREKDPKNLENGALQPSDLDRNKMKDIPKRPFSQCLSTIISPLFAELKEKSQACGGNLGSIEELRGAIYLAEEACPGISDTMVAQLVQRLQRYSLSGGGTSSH
T9 sequence (Q9NWZ3 whole entry): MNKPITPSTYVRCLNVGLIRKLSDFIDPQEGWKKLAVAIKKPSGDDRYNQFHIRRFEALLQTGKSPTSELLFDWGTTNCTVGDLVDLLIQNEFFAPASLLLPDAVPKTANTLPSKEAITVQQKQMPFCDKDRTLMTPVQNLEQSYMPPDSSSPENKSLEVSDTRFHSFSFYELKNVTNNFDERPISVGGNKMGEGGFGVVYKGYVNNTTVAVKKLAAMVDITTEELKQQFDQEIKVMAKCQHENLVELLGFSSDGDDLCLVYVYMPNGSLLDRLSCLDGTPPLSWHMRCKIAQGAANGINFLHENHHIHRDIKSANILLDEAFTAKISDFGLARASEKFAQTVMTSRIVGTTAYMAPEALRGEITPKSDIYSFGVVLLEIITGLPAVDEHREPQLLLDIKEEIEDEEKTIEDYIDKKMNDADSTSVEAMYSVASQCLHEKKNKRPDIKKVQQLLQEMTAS
T12 sequence (Q9UM73 19-1620): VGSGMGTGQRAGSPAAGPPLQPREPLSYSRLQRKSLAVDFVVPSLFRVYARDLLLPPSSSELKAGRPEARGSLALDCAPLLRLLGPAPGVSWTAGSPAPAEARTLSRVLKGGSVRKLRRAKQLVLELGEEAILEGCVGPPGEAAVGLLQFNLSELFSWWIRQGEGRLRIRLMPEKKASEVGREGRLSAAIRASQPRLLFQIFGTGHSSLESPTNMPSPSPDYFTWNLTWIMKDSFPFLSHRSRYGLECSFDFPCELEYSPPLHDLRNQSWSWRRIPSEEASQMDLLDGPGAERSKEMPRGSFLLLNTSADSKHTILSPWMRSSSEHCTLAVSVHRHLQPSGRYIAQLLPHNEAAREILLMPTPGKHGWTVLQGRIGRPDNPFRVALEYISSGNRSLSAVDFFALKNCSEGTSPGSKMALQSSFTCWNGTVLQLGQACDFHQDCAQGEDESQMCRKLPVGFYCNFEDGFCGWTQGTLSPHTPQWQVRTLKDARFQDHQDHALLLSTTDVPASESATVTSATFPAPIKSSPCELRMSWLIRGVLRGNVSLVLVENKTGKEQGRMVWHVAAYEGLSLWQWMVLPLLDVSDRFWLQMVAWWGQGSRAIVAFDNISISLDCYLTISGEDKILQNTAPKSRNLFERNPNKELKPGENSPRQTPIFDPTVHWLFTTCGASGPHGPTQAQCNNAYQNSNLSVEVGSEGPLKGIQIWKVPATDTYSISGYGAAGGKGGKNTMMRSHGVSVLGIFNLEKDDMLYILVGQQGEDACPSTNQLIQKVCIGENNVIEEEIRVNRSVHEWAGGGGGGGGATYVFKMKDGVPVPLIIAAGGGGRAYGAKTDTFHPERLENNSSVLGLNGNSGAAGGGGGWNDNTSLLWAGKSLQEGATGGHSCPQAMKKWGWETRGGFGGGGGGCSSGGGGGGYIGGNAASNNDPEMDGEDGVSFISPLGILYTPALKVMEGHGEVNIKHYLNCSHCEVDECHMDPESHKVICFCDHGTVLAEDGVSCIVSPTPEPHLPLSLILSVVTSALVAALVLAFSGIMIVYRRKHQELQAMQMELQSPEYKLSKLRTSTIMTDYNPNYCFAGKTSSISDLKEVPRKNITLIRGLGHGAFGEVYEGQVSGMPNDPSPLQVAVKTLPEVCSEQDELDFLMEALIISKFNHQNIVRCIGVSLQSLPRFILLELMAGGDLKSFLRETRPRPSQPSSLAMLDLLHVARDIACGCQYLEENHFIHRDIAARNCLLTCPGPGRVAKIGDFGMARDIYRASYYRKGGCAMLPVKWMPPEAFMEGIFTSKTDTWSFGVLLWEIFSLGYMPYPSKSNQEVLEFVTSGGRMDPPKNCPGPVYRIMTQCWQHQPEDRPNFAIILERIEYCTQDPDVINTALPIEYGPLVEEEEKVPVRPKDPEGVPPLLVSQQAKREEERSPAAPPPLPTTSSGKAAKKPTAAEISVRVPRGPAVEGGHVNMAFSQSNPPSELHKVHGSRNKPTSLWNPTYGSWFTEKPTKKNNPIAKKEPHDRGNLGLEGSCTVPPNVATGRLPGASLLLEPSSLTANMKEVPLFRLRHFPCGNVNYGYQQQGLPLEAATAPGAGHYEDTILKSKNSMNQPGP
Chain of CLK2 (P49760 whole entry): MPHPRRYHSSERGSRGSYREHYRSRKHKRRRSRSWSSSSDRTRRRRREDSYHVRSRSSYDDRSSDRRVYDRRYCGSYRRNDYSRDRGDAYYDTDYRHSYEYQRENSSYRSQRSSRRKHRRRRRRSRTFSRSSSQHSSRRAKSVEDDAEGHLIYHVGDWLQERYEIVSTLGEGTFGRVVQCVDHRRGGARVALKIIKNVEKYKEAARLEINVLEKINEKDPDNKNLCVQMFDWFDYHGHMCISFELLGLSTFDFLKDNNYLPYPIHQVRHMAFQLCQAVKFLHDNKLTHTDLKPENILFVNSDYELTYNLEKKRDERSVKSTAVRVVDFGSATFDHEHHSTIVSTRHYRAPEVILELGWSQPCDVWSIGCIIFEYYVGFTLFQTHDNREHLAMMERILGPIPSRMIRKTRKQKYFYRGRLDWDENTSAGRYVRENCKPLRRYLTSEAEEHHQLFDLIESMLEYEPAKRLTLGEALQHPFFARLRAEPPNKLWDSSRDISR

In the case of `CCc1ccc2c(c1)C1(NN=C(c3cccc4ccccc34)S1)C(=O)N2` (stereo not shown) [OGM1, 5-ethyl-5′-naphthalen-1-ylspiro[1H-indole-3,2′-3H-1,3,4-thiadiazole]-2-one], the remaining binding at 10 µM was 61% in series [1]; 61% in series [2]; 86% in series [3]; 96% in [4]; 78% in series [5]; 100% in [6]. Moreover, the remaining binding at 10 µM in series [7] worked out at 100%; in series [8], 95%; in series [10], 88%; in [11], 54%; in series [12] it was 100%; in series [14], 100%. In addition, the remaining binding at 10 µM stood at 92% in series [16] and 100% in series [17]. Moreover, the Antagonism is listed as −0.7 in series [9] (10 uM), −2 in series [13] (10 uM), 7 in series [15] (10 uM) and −4.2 in series [18] (10 uM). Besides, the Agonism in series [9] (12.5 uM) is −0.7; in [13] (12.5 uM), 0.9; in series [15] (12.5 uM), −0.2; in series [18] (12.5 uM), 0.
With `CCc1ccc2c(c1)C1(NN=C(c3ccccc3)S1)C(=O)N2` (stereo not shown) [OGM2], the figures for the Class result in [19] and in series [21] were “Refractory” and “Sensitive (Sensitive (LC50=2 to 10 μM))”, respectively. Moreover, the figures for the “% Survival 2 μM OGM” value in [19] (72 hours), in [21] (72 hours) and in series [22] were 102.8%, 65.3% and 33.0%, respectively. For the same compound, the entries for the “% Survival 10 μM OGM” value in [19] (72 hours), in [21] (72 hours) and in series [22] were 103.9%, 15.3% and 9.4%, respectively. In addition, the “LC50 (μM)” value in [19] (72 hours) is reported as “No”. In [20], the acidification-increased matrix invasion result is listed as “attenuated”. Moreover, the CC50 was 2 to 10 µM in series [21] (Homo sapiens, MOLM-14, 72 hours, read-out: LC50 (the source's name)) and under 2 µM in [22] (Homo sapiens, THP-1, read-out: LC50 (the source's name)).
